Measurements taken from patent publication US20160244437A1, “SUBSTITUTED PHENYLALANINE DERIVATIVES” (BAYER PHARMA AKTIENGESELLSCHAFT, priority 2013, published 2016).
Structures can show the parent of a compound that is named as a salt.

Key:
human factor XIa = target: T1, human factor XIa (Homo sapiens, UniProt P03951); assay: Measurement of FXIa inhibition (fluorogenic peptide substrate Boc-Glu(OBzl)-Ala-Arg-AMC); format: biochemical; details: factor XIa from Kordia 0.45 nM, 15 min pre-incubation, 30 min at 22° C., fluorescence
T1 construct: purchased Kordia
T1 sequence (P03951 388-625 limits assumed): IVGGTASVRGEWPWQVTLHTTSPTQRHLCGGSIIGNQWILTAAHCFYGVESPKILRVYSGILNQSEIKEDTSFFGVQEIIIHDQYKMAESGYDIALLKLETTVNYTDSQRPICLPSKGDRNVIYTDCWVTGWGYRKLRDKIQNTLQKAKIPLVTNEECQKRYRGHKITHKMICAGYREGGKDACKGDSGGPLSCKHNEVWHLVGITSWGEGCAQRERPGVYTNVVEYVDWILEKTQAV
T1 sequence (P03951 19-387 partner limits assumed): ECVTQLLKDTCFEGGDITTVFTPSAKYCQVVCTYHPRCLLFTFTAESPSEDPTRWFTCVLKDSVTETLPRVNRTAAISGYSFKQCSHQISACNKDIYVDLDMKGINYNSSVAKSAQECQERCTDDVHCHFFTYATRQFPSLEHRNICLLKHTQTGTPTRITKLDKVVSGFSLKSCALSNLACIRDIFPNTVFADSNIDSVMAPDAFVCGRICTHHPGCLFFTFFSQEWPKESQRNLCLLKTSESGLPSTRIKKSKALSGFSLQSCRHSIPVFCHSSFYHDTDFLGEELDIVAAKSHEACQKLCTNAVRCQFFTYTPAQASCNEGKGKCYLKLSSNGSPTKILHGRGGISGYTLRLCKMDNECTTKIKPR

human and animal plasma = assay: Determination of anticoagulatory activity: activated partial thromboplastin time (aPTT) in plasma; details: concentration of test substance which brings about a 1.5-fold extension of the aPTT; plasma in vitro, C.K. Prest kit
In short: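 Citrated plasma (human, mouse, rat, rabbit, pig, dog) incubated with varying compound concentrations and cephalin/kaolin PTT reagent for 3 minutes at 37° C.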

IC50 (human factor XIa) [nM] | Compound | aPTT (human and animal plasma) [µmol/L]
2.3 | NC[C@H]1CC[C@H](C(=O)N[C@@H](Cc2cccc(-c3cnc(N)nc3)c2)C(=O)Nc2ccc(-c3nnn[nH]3)cc2)CC1 [Example 79, N-alpha-{[trans-4-(Aminomethyl)cyclohexyl]carbonyl}-3-(2-aminopyrimidin-5-yl)-N-[4-(1H-tetrazol-5-yl)phenyl]-L-phenylalaninamide hydrochloride] | 0.14
2.4 | Cc1cnccc1-c1cccc(C[C@H](NC(=O)[C@H]2CC[C@H](CN)CC2)C(=O)Nc2ccc(-c3nnn[nH]3)cc2)c1 [Example 80, N-alpha-{[trans-4-(Aminomethyl)cyclohexyl]carbonyl}-3-(3-methylpyridin-4-yl)-N-[4-(1H-tetrazol-5-yl)phenyl]-L-phenylalaninamide hydrochloride] | 0.25
2.5 | NC[C@H]1CC[C@H](C(=O)N[C@@H](Cc2cccc(-c3cccnc3C(F)(F)F)c2)C(=O)Nc2ccc(-c3nnn[nH]3)cc2)CC1 [Example 81, N-alpha-{[trans-4-(Aminomethyl)cyclohexyl]carbonyl}-N-[4-(1H-tetrazol-5-yl)phenyl]-3-[2-(trifluoromethyl)pyridin-3-yl]-L-phenylalaninamide hydrochloride] | 0.3
3.4 | NC[C@H]1CC[C@H](C(=O)N[C@@H](Cc2cccc(-c3cnc(NC4CC4)nc3)c2)C(=O)Nc2ccc(-c3nnn[nH]3)cc2)CC1 [Example 82, N-alpha-{[trans-4-(Aminomethyl)cyclohexyl]carbonyl}-3-[2-(cyclopropylamino)pyrimidin-5-yl]-N-[4-(1H-tetrazol-5-yl)phenyl]-L-phenylalaninamide hydrochloride] | 0.14
1.3 | Cc1ccc2[nH]ncc2c1-c1cccc(C[C@H](NC(=O)[C@H]2CC[C@H](CN)CC2)C(=O)Nc2ccc(-c3nnn[nH]3)cc2)c1 [Example 83, N-alpha-{[trans-4-(Aminomethyl)cyclohexyl]carbonyl}-3-(5-methyl-1H-indazol-4-yl)-N-[4-(1H-tetrazol-5-yl)phenyl]-L-phenylalaninamide hydrochloride] | 0.17
2.5 | CC(=O)Nc1ccc(Cl)c(-c2cccc(C[C@H](NC(=O)[C@H]3CC[C@H](CN)CC3)C(=O)Nc3ccc(-c4nnn[nH]4)cc3)c2)c1 [Example 86, trans-N-[(2S)-3-[5′-(Acetylamino)-2′-chlorobiphenyl-3-yl]-1-oxo-1-{[4-(1H-tetrazol-5-yl)phenyl]amino}propan-2-yl]-4-(aminomethyl)cyclohexanecarboxamide hydrochloride] | 0.24
5.8 | CN(C)CCCOc1ccc(-c2cccc(C[C@H](NC(=O)[C@H]3CC[C@H](CN)CC3)C(=O)Nc3ccc(-c4nnc(Cl)[nH]4)cc3)c2)cn1 [Example 90, N-alpha-{[trans-4-(Aminomethyl)cyclohexyl]carbonyl}-N-[4-(3-chloro-4H-1,2,4-triazol-5-yl)phenyl]-3-{6-[3-(dimethylamino)propoxy]pyridin-3-yl}-L-phenylalaninamide hydrochloride] | 0.08
3.5 | CN1CCN(c2ncc(-c3cccc(C[C@H](NC(=O)[C@H]4CC[C@H](CN)CC4)C(=O)Nc4ccc(-c5nnc(Cl)[nH]5)cc4)c3)cn2)CC1 [Example 91, N-alpha-{[trans-4-(Aminomethyl)cyclohexyl]carbonyl}-N-[4-(3-chloro-4H-1,2,4-triazol-5-yl)phenyl]-3-[2-(4-methylpiperazin-1-yl)pyrimidin-5-yl]-L-phenylalaninamide hydrochloride] | 0.06
3.6 | NC[C@H]1CC[C@H](C(=O)N[C@@H](Cc2cccc(-c3cnc(N4CCOCC4)nc3)c2)C(=O)Nc2ccc(-c3nnc(Cl)[nH]3)cc2)CC1 [Example 92, N-alpha-{[trans-4-(Aminomethyl)cyclohexyl]carbonyl}-N-[4-(3-chloro-4H-1,2,4-triazol-5-yl)phenyl]-3-[2-(morpholin-4-yl)pyrimidin-5-yl]-L-phenylalaninamide hydrochloride] | 0.37
5.3 | CN(C)c1ncc(-c2cccc(C[C@H](NC(=O)[C@H]3CC[C@H](CN)CC3)C(=O)Nc3ccc(-c4nnc(Cl)[nH]4)cc3)c2)cn1 [Example 93, N-alpha-{[trans-4-(Aminomethyl)cyclohexyl]carbonyl}-N-[4-(3-chloro-4H-1,2,4-triazol-5-yl)phenyl]-3-[2-(dimethylamino)pyrimidin-5-yl]-L-phenylalaninamide hydrochloride] | 0.48
5.4 | CC(=O)Nc1ncc(-c2cccc(C[C@H](NC(=O)[C@H]3CC[C@H](CN)CC3)C(=O)Nc3ccc(-c4nnn[nH]4)cc3)c2)c(C)n1 [Example 94, 3-[2-(Acetylamino)-4-methylpyrimidin-5-yl]-N-alpha-{[trans-4-(aminomethyl)cyclohexyl]-carbonyl}-N-[4-(1H-tetrazol-5-yl)phenyl]-L-phenylalaninamide hydrochloride] | 0.23
5.4 | Cc1nc(N)ncc1-c1cccc(C[C@H](NC(=O)[C@H]2CC[C@H](CN)CC2)C(=O)Nc2ccc(-c3nnn[nH]3)cc2)c1 [Example 95, N-alpha-{[trans-4-(Aminomethyl)cyclohexyl]carbonyl}-3-(2-amino-4-methylpyrimidin-5-yl)-N-[4-(1H-tetrazol-5-yl)phenyl]-L-phenylalaninamide hydrochloride] | 0.24
3.3 | NC[C@H]1CC[C@H](C(=O)N[C@@H](Cc2cccc(-c3cnc(N4CCOCC4)nc3)c2)C(=O)Nc2ccc(-c3n[nH]c(C(F)(F)C(F)(F)C(=O)O)n3)cc2)CC1 [Example 96, 3-(3-{4-[(N-{[trans-4-(Aminomethyl)cyclohexyl]carbonyl}-3-[2-(morpholin-4-yl)pyrimidin-5-yl]-L-phenylalanyl)amino]phenyl}-1H-1,2,4-triazol-5-yl)-2,2,3,3-tetrafluoropropanoic acid hydrochloride] | 0.19
2.1 | Cc1cc(N)ccc1-c1cccc(C[C@H](NC(=O)[C@H]2CC[C@H](CN)CC2)C(=O)Nc2ccc(-c3nnn[nH]3)cc2)c1 [Example 97, trans-4-(Aminomethyl)-N-[(2S)-3-(4′-amino-2′-methylbiphenyl-3-yl)-1-oxo-1-{[4-(1H-tetrazol-5-yl)phenyl]amino}propan-2-yl]cyclohexanecarboxamide hydrochloride] | 0.12
5.4 | Cc1nc(O)ccc1-c1cccc(C[C@H](NC(=O)[C@H]2CC[C@H](CN)CC2)C(=O)Nc2ccc(-c3nnn[nH]3)cc2)c1 [Example 98, N-alpha-{[trans-4-(Aminomethyl)cyclohexyl]carbonyl)}-3-(6-hydroxy-2-methylpyridin-3-yl)-N-[4-(1H-tetrazol-5-yl)phenyl]-L-phenylalaninamide hydrochloride] | 0.2

Compound | IC50 (human factor XIa) [nM] | aPTT (human and animal plasma) [µmol/L]
Cc1ccc2[nH]ncc2c1-c1cccc(C[C@H](NC(=O)[C@H]2CC[C@H](CN)CC2)C(=O)Nc2ccc(-c3noc(=O)[nH]3)cc2)c1 [Example 87, N-alpha-{[trans-4-(Aminomethyl)cyclohexyl]carbonyl}-3-(5-methyl-1H-indazol-4-yl)-N-[4-(5-oxo-4,5-dihydro-1,2,4-oxadiazol-3-yl)phenyl]-L-phenylalaninamide hydrochloride] | 3.5 | 0.49
